Experimental data from PubChem BioAssay (NCI).
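Abbreviation: GI50, concentration required for 50% inhibition of growth. TGI marks complete inhibition of growth.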

Columns and labels:
Experiment in all cases: NCI-60 cell line screen, 384-well format
[1] = test system: DU-145 prostate
[2] = test system: NCI/ADR-RES ovarian
[3] = test system: SNB-75 CNS
[4] = test system: 786-0 renal
[5] = test system: U251 glioblastoma
[6] = test system: NCI-H522 lung
[7] = test system: IGROV1 ovarian
[8] = test system: MOLT-4 leukemia
[9] = test system: SK-OV-3 ovarian
[10] = test system: RXF 393 renal
[11] = test system: HOP-92 NSCLC
[12] = test system: K-562 leukemia
[13] = test system: LOX IMVI melanoma

Structure (SMILES): CC(C)[C@](O)(c1ccc2cc(OC(F)F)c(OC(F)F)cc2c1)c1cn[nH]n1
- GI50 [1]: 16.5 µM
- TGI [1]: 32.8 µM
- GI50 [2]: 18.7 µM
- TGI [2]: 33.8 µM
- GI50 [3]: 14.9 µM
- TGI [3]: 29.5 µM
- GI50 [4]: 16.2 µM
- TGI [4]: 30.3 µM
- GI50 [5]: 16.7 µM
- TGI [5]: 30.5 µM
- GI50 [6]: 13.6 µM
- TGI [6]: 27.7 µM
- GI50 [7]: 17.6 µM
- TGI [7]: 37 µM
- GI50 [8]: 11.3 µM
- TGI [8]: 23.5 µM
- GI50 [9]: 15.4 µM
- TGI [9]: 29.5 µM
- GI50 [10]: 13.8 µM
- TGI [10]: 28.3 µM
- GI50 [11]: 16.7 µM
- TGI [11]: 30.4 µM
- GI50 [12]: 11 µM
- TGI [12]: 23.5 µM
- GI50 [13]: 17.3 µM
- TGI [13]: 31.2 µM
